Laboratory results published in patent EP0299434B1, “High pH recovery of neutral amino acids” (GENENCOR INTERNATIONAL, INC., priority 1987, dated 1989).

Test: solution pKa (pH at which the solubility versus pH curve changes slope)
Assay type: physicochemical
From the text: The theoretical pKa of a neutral amino acid is a rigorously defined parameter which is independent of temperature and the presence of other components. In accordance with the present invention, the important pKa is the solution pKa which takes into account the actual characteristics of the solution. Thus, the pKa of the neutral amino acid in the actual solution from which it is desired to precipitate the amino acid must be measured. The "solution pKa" is the pH at which the solubility versus pH curve for the solution in question changes slope. For example, if the log of the concentration at saturation is plotted versus pH, two straight line portions of the curve will be noted. The intersection of these straight line portions when extended is considered to be the solution pKa of this solution under the conditions of the test. The solution pKa will depend on the other components in the solution, for example the base that might be present, the temperature and other factors.

pKa (ion exchange eluate concentrated by reverse osmosis, 37°C, ion exchange eluate concentrated by reverse osmosis (Example 4)): ~8.9
pKa (ion exchange eluate evaporated at 60°C, ion exchange eluate evaporated at 60°C (Example 6)): ~8.2
pKa (ion exchange eluate redissolved with ammonium hydroxide, 30°C, ammonia stripping): 9
pKa (ion exchange eluate redissolved with ammonium hydroxide, 39°C, ammonia stripping): 8.8
pKa (ion exchange eluate redissolved with ammonium hydroxide, 55°C, ammonia stripping): 8.4
pKa (saturation curve of Fig. 1): ~9.2
SMILES: N[C@@H](Cc1c[nH]c2ccccc12)C(=O)O [tryptophan]
